Results published in patent publication US9938516B2, “Non-natural amino acid tRNA synthetases for para-methylazido-L-phenylalanine” (SUTRO BIOPHARMA, INC., priority 2013, dated 2018).

Assay: copper-free click conjugation kinetics with DBCO-PEG
Assay type: physicochemical
Conditions: 10-fold molar excess DBCO-PEG; 25° C., ionic strength 0.5 M (KCl), 0.005% Tween-20, phosphate buffer
Procedure: The small molecule conjugation kinetics of pAzF and pAMF were compared. In particular, pAzF and pAMF were reacted at increasing concentrations with a 10-fold molar excess of dibenzocyclooctyl-polyethylene glycol (DBCO-PEG) compound (FIG. 2A and FIG. 2C) in a copper-free click reaction. First-order kinetics at 25° C., ionic strength 0.5 M (KCl), and 0.005% Tween-20 in phosphate buffer were determined under pseudo-first-order conditions in triplicate, using a SpectraMax M5 plate reader with 96-well polystyrene plates (Molecular Devices, Sunnyvale, Calif.). The formation of conjugated product was measured by the decrease in absorbance of the strained cyclooctoalkyne DBCO at 306 nm in the presence of increasing concentrations of pAzF or pAMF. The second-order rate constants were calculated according to kcat (M−1 sec-1)=kobs/[Azido].

Structure (SMILES): [N-]=[N+]=NCc1ccc(C[C@H](N)C(=O)O)cc1 [pAMF, para-azidomethyl-L-phenylalanine]
- reaction rate relative to pAzF: seven-fold higher
